From patent publication US6911443B2 (Bayer Aktiengesellschaft, priority 2000, dated 2005) come the findings set out here.

Bounds are passed on as bounds.

The target of one assay is T1, human Syk (GST-Syk) (Homo sapiens, UniProt P43405).
T1 construct: A cDNA fragment encoding human Syk openreading frame was cloned; made in house; host or cells: Sf21 insect cells (baculovirus, transfer vector pAcG2T)
Description: Syk tyrosine kinase inhibitory assay. It is filed as biochemical. As to conditions: Activity grade (IC50 class), in vitro; compounds as yielded by solid phase synthesis, purity about 40 to 90%. The gist of the method: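 Readout: streptavidin-captured biotin-AL peptide probed with europium-4G10 anti-phosphotyrosine, time-resolved fluorescence (ex 340/em 615 nm). Reaction ran 1 h at room temperature with 30 μM ATP, 3 μM peptide, 0.65 nM Sf21-expressed GST-Syk and 0.25% DMSO, pH 8.0.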
For the compound `CCSc1nc(-c2ccc(OC)c(OC(=O)N(C)C)c2)cc2nccn12` [Example 4-10], the IC50 lay within 0.5 to 2 µM.

Staying with this assay, now noted: Table 11; read-out: Activity grade.
For the compound `COc1ccc(-c2cc3nccn3c(Nc3cnccc3C(N)=O)n2)cc1OC` [Example 12-61], the IC50 is 0.5 to 2 µM.

As for `COc1ccc(-c2cc3nccn3c(Nc3ccncc3)n2)cc1OC` [Example 12-8], the IC50 was less than 0.5 µM.

For `COc1ccc(-c2cc3nccn3c(Nc3cccnc3)n2)cc1OC` [Example 12-7], the IC50 is less than 0.5 µM.

As for `COc1ccc(Nc2nc(-c3ccc(N4CCOCC4)c(OC)c3)cc3nccn23)cc1` [Example 12-37], the IC50 is less than 0.5 µM.

Regarding `COc1ccc(-c2cc3nccn3c(Nc3cnccc3C(N)=O)n2)cc1OC` [Example 12-45], the IC50 is less than 0.5 µM.

Take `COc1cc(-c2cc3nccn3c(Nc3ccc4cn[nH]c4c3)n2)ccc1N1CCOCC1` [Example 12-59]: the IC50 is less than 0.5 µM.

For the compound `CCN(CC)CCOc1ccc(-c2cc3nccn3c(Nc3ccccc3)n2)cc1OC` [Example 12-35], the IC50 lay within 2 to 10 µM.

Take `COc1ccc(-c2cc3nccn3c(Nc3ccc(Cl)nc3)n2)cc1OC` [Example 12-30]: the IC50 was less than 0.5 µM.

For `COc1cc(-c2cc3nccn3c(Nc3ccccc3)n2)ccc1OC(C)=O` [Example 12-33], the IC50 was less than 0.5 µM.

On to `COc1ccc(-c2cc3nccn3c(Nc3ccccc3)n2)cc1OCc1ccccc1` [Example 12-27], for which the IC50 was in the range of 2 to 10 µM.

As to `COc1ccc(-c2cc3nccn3c(Nc3cccc(Cl)c3)n2)cc1OC` [Example 12-11], the IC50 is less than 0.5 µM.

Staying with this assay, now noted: Table 13; read-out: Activity grade.
Turning to `COc1ccc(-c2cc3nccn3c(SCC(C)C)n2)cc1OC` [Example 14-22], the IC50 was less than 0.5 µM.

For the compound `COc1ccc(-c2cc3nccn3c(Oc3cccc(Br)c3)n2)cc1OC` [Example 14-5], the IC50 was in the range of 0.5 to 2 µM.

As to `CCCCCSc1nc(-c2ccc(OC)c(OC)c2)cc2nccn12` [Example 14-26], the IC50 fell in the range of 0.5 to 2 µM.

Turning to `COc1ccc(-c2cc3nccn3c(SCc3ccccc3)n2)cc1OC` [Example 14-2], the IC50 was less than 0.5 µM.

On to `COc1ccc(-c2cc3ncnn3c(Sc3ccc(/C=C/C(=O)O)cc3)n2)cc1OC` [Example 14-10], for which the IC50 is less than 0.5 µM.

With `COc1ccc(-c2cc3nccn3c(SCCc3cnccn3)n2)cc1OC` [Example 14-32], the IC50 is less than 0.5 µM.

Still in this assay, the particulars now being: Table 14; read-out: Activity grade.
In the case of `COc1ccc(-c2cc3nccn3c(Sc3ccc(C(F)(F)F)cn3)n2)cc1OC` [Example 15-1], the IC50 was less than 0.5 µM.

For the compound `COc1ccc(-c2cc3nccn3c(Sc3ccncc3C(=O)O)n2)cc1OC` [Example 15-2], the IC50 is less than 0.5 µM.

As for `COc1ccc(-c2cc3nccn3c(NC3CCCCC3)n2)cc1OC` [Example 15-4], the IC50 lay within 0.5 to 2 µM.

The same assay, now with this note: Table 16; read-out: Activity grade.
Take `CCSc1nc(-c2ccc(OCCOC)c(OC)c2)cc2nccn12` [Example 17-10]: the IC50 fell in the range of 0.5 to 2 µM.

Consider `CCSc1nc(-c2ccc(OC)c(NCCN(C)C)c2)cc2nccn12` [Example 17-8], for which the IC50 was 0.5 to 2 µM.

Take `CCSc1nc(-c2ccc(NCc3ccccc3)c(OC)c2)cc2nccn12` [Example 17-9]: the IC50 lay in the range of 2 to 10 µM.

For the compound `CCSc1nc(-c2ccc(OC)c(N(C)CCCN(C)C)c2)cc2nccn12` [Example 17-5], the IC50 was 0.5 to 2 µM.

Still in this assay, the particulars now being: Table 17; IC50 classes; read-out: Activity grade.
Take `COc1ccc(-c2cc3nccn3c(Nc3ccc(C(=O)N(C)CCO)cc3)n2)cc1OC` [compound 6]: the IC50 is less than 0.5 µM.

In the case of `COc1ccc(-c2cc3nccn3c(NC(=O)c3ccccc3)n2)cc1OC` [Example 16], the IC50 fell in the range of 0.5 to 2 µM.

Take `COc1ccc(-c2cc3nccn3c(Nc3ccccc3)n2)cc1N` [compound 1]: the IC50 fell in the range of 0.5 to 2 µM.

Consider `COc1ccc(-c2cc3nccn3c(Nc3ccccc3-c3nnn[nH]3)n2)cc1OC` [Example 31], for which the IC50 was less than 0.5 µM.

In the case of `COc1ccc(-c2cc3nccn3c(Nc3ccc(C(=O)NCC(O)CO)cc3)n2)cc1OC` (stereo not drawn) [Example 5], the IC50 was less than 0.5 µM.

Take `COc1ccc(-c2cc3nccn3c(NC(=O)Nc3ccccc3)n2)cc1OC` [Example 22]: the IC50 lay in the range of 0.5 to 2 µM.

Staying with this assay, now noted: in vitro; compounds as yielded by solid phase synthesis, purity about 40 to 90%.
For `CCOC(=O)CN1CCN(c2nc(-c3ccc(OC)c(OC)c3)cc3nccn23)CC1` [Example 9-73], the “Activity grade (IC50 class)” value was “C-D”.

Take `CCSc1nc(-c2ccc(S(N)(=O)=O)c(OC)c2)cc2nccn12` [Example 2-7]: the “Activity grade (IC50 class)” value is given as “C-D”.

Take `COc1cc(-c2cc3nccn3c(Nc3ccccc3S(N)(=O)=O)n2)ccc1OCCN1CCOCC1` [Example 9-97]: the “Activity grade (IC50 class)” value is recorded as “C-D”.

Take `COc1ccc(-c2cc3ncnn3c(Nc3ccc4ncccc4c3)n2)cc1OC` [Example 9-18]: the “Activity grade (IC50 class)” value is given as “C-D”.

The assay is the same for the next values; noted with them: in vitro; compounds as yielded by solid phase synthesis, purity about 40 to 90%; read-out: Activity grade (IC50 class).
Regarding `CCSc1nc(-c2ccsc2)cc2nccn12` [Example 8-5], the IC50 is 0.5 to 2 µM.

For `CNC(=O)c1ccccc1Nc1nc(-c2ccc(OC)c(OC)c2)cc2nccn12` [Example 11-99], the IC50 was less than 0.5 µM.

As for `COc1ccc(-c2cc3nccn3c(NC3CCC(C(=O)O)CC3)n2)cc1OC` (stereo not drawn) [Example 9-31], the IC50 was 0.5 to 2 µM.

In the case of `COc1ccc(-c2cc3nccn3c(N(C)c3ccc(Cl)cc3)n2)cc1OC` [Example 11-45], the IC50 lay in the range of 0.5 to 2 µM.

For `COc1ccc(-c2cc3nccn3c(NCC(O)CO)n2)cc1OC` (stereo not drawn) [Example 9-4], the IC50 lay in the range of 0.5 to 2 µM.

Regarding `COc1ccc(-c2cc3nccn3c(N3CCN(c4ccc(Cl)cc4)CC3)n2)cc1OC` [Example 9-39], the IC50 lay within 2 to 10 µM.

`COc1ccc(-c2cc3nccn3c(Nc3ccccc3S(=O)(=O)N(C)C)n2)cc1OC` [Example 11-123]: the IC50 is less than 0.5 µM.

`COc1ccc(Nc2nc(-c3ccc(OC)c(OC)c3)cc3ncnn23)cc1` [Example 11-15]: the IC50 was less than 0.5 µM.

Regarding `COc1ccc(-c2cc3nccn3c(Nc3ccccc3C(=O)O)n2)cc1OC` [Example 11-77], the IC50 is less than 0.5 µM.

In the case of `COc1ccc(-c2cc3nccn3c(SC3C=CCCC3)n2)cc1OC` (stereo not drawn) [Example 9-6], the IC50 is less than 0.5 µM.

For `COc1ccc(-c2cc3nccn3c(Nc3ccc(C(=O)O)cc3)n2)cc1OC` [Example 11-28], the IC50 is less than 0.5 µM.

Consider `COc1ccc(-c2cc3nccn3c(Nc3ccccc3C#N)n2)cc1OC` [Example 11-121], for which the IC50 was in the range of 0.5 to 2 µM.

On to `COc1ccc(-c2cc3nccn3c(NC3CCCC[C@@H]3N)n2)cc1OC` (stereo partly drawn) [Example 9-86], for which the IC50 was 0.5 to 2 µM.

`CCOC(=O)N1CCN(c2nc(-c3ccc(OC)c(OC)c3)cc3nccn23)CC1` [Example 9-72]: the IC50 was 2 to 10 µM.

Regarding `COc1ccc(-c2cc3nccn3c(NC(=O)c3ccccc3)n2)cc1OC` [Example 16], the IC50 was less than 0.5 µM.

For `CCSc1nc(-c2ccc(OCCN3CC(C)OC(C)C3)c(OC)c2)cc2nccn12` (stereo not drawn) [Example 5-14], the IC50 is less than 0.5 µM.

`COc1ccc(-c2cc3nccn3c(N3CCN(C)CC3)n2)cc1OC` [Example 9-37]: the IC50 was in the range of 0.5 to 2 µM.

Turning to `COc1ccc(-c2cc3nccn3c(Nc3cccc(S(N)(=O)=O)c3)n2)cc1OC` [Example 11-114], the IC50 is less than 0.5 µM.

For the compound `COc1ccc(-c2cc3ncnn3c(Nc3ncccc3O)n2)cc1OC` [Example 9-17], the IC50 lay within 2 to 10 µM.

Regarding `COc1ccc(-c2cc3nccn3c(N3CCc4ccccc43)n2)cc1OC` [Example 9-13], the IC50 fell in the range of 0.5 to 2 µM.

For the compound `COc1ccc(-c2cc3nccn3c(Nc3cccc(C(N)=O)c3)n2)cc1OC` [Example 11-11], the IC50 is less than 0.5 µM.

As to `CCSc1nc(-c2ccc(OC)c(OCCCN3CCCCC3)c2)cc2nccn12` [Example 5-6], the IC50 is 0.5 to 2 µM.

With `CCCCNS(=O)(=O)c1cccc(Nc2nc(-c3ccc(OC)c(OC)c3)cc3nccn23)c1` [Example 11-73], the IC50 was less than 0.5 µM.

Regarding `COc1ccc(-c2cc3nccn3c(Sc3ncccn3)n2)cc1OC` [Example 13-13], the IC50 is less than 0.5 µM.

`COc1ccc(-c2cc3nccn3c(Nc3ccccc3C(=O)N(C)C)n2)cc1OC` [Example 11-1]: the IC50 was in the range of 0.5 to 2 µM.

Consider `CCSc1nc(-c2ccc(OC)c(OC)c2)cc2nc(C)cn12` [Example 1-8], for which the IC50 is less than 0.5 µM.

`COc1cccc(Nc2nc(-c3ccc(OC)c(OC)c3)cc3nccn23)c1` [Example 11-58]: the IC50 was less than 0.5 µM.

Turning to `CNC(=O)c1cccc(Nc2nc(-c3ccc(OC)c(OC)c3)cc3nccn23)c1` [Example 11-72], the IC50 is less than 0.5 µM.

Take `COc1ccc(-c2cc3nccn3c(Nc3ccccc3F)n2)cc1OC` [Example 11-53]: the IC50 was less than 0.5 µM.

For the compound `COc1ccc(Nc2nc(-c3ccc(OC)c(OC)c3)cc3nccn23)cc1NC(=O)CN1CCOCC1` [Example 11-83], the IC50 fell in the range of 0.5 to 2 µM.

On to `COc1ccc(-c2cc3nccn3c(N(C)c3ccc(S(=O)(=O)O)cc3)n2)cc1OC` [Example 11-6], for which the IC50 is 2 to 10 µM.

For `COc1ccc(-c2cc3nccn3c(Sc3ccccc3Br)n2)cc1OC` [Example 13-6], the IC50 was less than 0.5 µM.

With `CCSc1nc(-c2ccc(SC)cc2)cc2nccn12` [Example 1-12], the IC50 is 0.5 to 2 µM.

In the case of `COc1ccc(-c2cc3nccn3c(N3CC[C@@H](NC(=O)C(F)(F)F)C3)n2)cc1OC` [Example 9-70], the IC50 lay within 2 to 10 µM.

Consider `COc1ccc(-c2cc3nccn3c(Sc3ccc(/C=C/C(=O)O)c(C)c3)n2)cc1OC` [Example 13-22], for which the IC50 was less than 0.5 µM.

With `COc1ccc(-c2cc3nccn3c(Nc3ccc(NCCN(C)C)cc3)n2)cc1OC` [Example 11-74], the IC50 was less than 0.5 µM.

For `COc1ccc(-c2cc3nccn3c(N3CCN(c4ncccn4)CC3)n2)cc1OC` [Example 9-41], the IC50 is 0.5 to 2 µM.

In the case of `CCSc1nc(-c2cccs2)cc2nccn12` [Example 8-3], the IC50 was 0.5 to 2 µM.

With `COC(=O)CCCc1ccc(N(C)c2nc(-c3ccc(OC)c(OC)c3)cc3nccn23)cc1` [Example 11-125], the IC50 lay in the range of 0.5 to 2 µM.

For `COc1ccc(-c2cc3ncnn3c(Nc3ccccc3C(N)=O)n2)cc1OC` [Example 11-102], the IC50 was less than 0.5 µM.
